Earlier results in PMC10138554, “Insights into the Microbicidal, Antibiofilm, Antioxidant and Toxicity Profile of New O-Aryl-Carbamoyl-Oxymino-Fluorene Derivatives” (International Journal of Molecular Sciences, 2023).
≈ marks a conversion by molar mass, not a printed value.

Tested on: Artemia franciscana Kellog nauplii
Conditions: comparison value for brine shrimp toxicity; cited from earlier work

In the case of `O=P1(N(CCCl)CCCl)NCCCO1` (stereo not shown) [cyclophosphamide], the “IC50 (toxicity)” value is given as 16.3 µg/mL (≈ 62.4 µM).
